# Experimental data as given in patent US20160060285A1, “Aminoglycosides, Methods of Synthesis, and Associated Applications” (UTAH STATE UNIVERSITY, priority 2010, published 2016).
# Read-outs that look alike come from different tables or passages of the source.
# Experiments:
# [1] = test system: Staphylococcus aureus ATCC25923; assay: Bacterial growth inhibition (MIC) test, microtiter plate, CLSI protocol; assay type: cell-based
# [2] = test system: Fusarium graminearum B4-5A; assay: microbe, parasite or virus in culture; assay type: cell-based
# [3] = test system: Escherichia coli ATCC 25922; assay: Bacterial growth inhibition (MIC) test, microtiter plate, CLSI protocol; assay type: cell-based; conditions: E. coli 25922, Luria-Bertani medium, 37° C., 24 hours
# HeLa cells = assay: Cell viability assay (MTT), cytotoxicity test; assay type: cell-based, human; conditions: for toxicity to human cervical cancer cell line HeLa: 1.0 to 1000 μg/mL; for toxicity to human cervical cancer cell line HeLa / Viable Cells Percentage Compared to Control: 48 h; for Viable Cells Percentage Compared to Control: MTT
# Experimental: HeLa cells were grown in commercial DMEM 1× (Gibco) with 10% fetal bovine serum (FBS, Gibco), 100 U/mL penicillin, and 100 μg/mL streptomycin at 37° C. and 5% CO2. The cells were allowed to adhere for 24 h before drug treatment.
# The cells were seeded in 96-well microtiter plates (10,000/200 μL). After 24 h of incubation in the media, cells were treated with various concentrations of K608, K4608 and K408 (0.0, 1.0, 10.0, 100.0, 1000 μg/mL and Trition 1×) for 48 h. 20 μL of MTT stock solution (5 mg/mL) was added to each well and incubated for 4 h at 37° C. Upon completion of incubation, the media was carefully removed and washed twice with […] of pbs buffer. Then, 200 μL of DMSO was added to each well; agitated on orbital shaker for 15 min., and the absorbance at 570 nm with 670 nm filter was determined with a microplate reader (Synergy H4). The results are expressed as viability compared with that of control. The experiment was carried out in triplicate in three independent experiments.
# [4] = test system: Candida albicans ATCC64124 (azole-resistant); assay: microbe, parasite or virus in culture; assay type: cell-based; conditions: for MIC: ATCC64124, 48 h
# [5] = test system: azole-resistant Candida albicans ATCC 64124; assay: Antifungal synergism by checkerboard analysis, K-compound and azole combinations; assay type: cell-based; conditions: for MIC: Candida albicans; for MIC / MIC alone: compound alone; for MIC alone: K408 checkerboard table; for MIC K408 with azole: MIC of K408 when combined with the labelled azole; for MIC with K408: MIC of the labelled azole when combined with K408; for MIC with K4608: MIC of the labelled azole when combined with K4608; for FIC Index (K408 with azole): combination of K408 with the labelled azole; for FIC Index (K408 with azole) / FIC Index (K4608 with azole): synergistic if ≦0.5, indifferent if >0.5-4, antagonistic if >4; for FIC Index (K4608 with azole): combination of K4608 with the labelled azole
# [6] = test system: Candida albicans ATCC MYA-2876 (azole sensitive); assay: Fungal MIC and MFC, microbroth dilution assay (M27-A3); assay type: cell-based; conditions: C. albicans MYA2876 (azole sensitive); for MIC: RPMI 1640, 35° C., 48 hours
# [7] = S. aureus 25923, 37° C., 24 hours
# [8] = F. graminearum B4-5A, RPMI 1640, 35° C., 48 hour
# [9] = Staphylococcus aureus, ATCC25923, S. aureus 25923, 37° C., 24 hours, read-out: MIC
# [10] = ATCC64124, K408 checkerboard table, first of two separate experiments
# [11] = ATCC64124, K408 checkerboard table, second of two separate experiments
# [12] = Fusarium graminearum, B45A, 48 h
# [13] = first of two separate experiments
# [14] = second of two separate experiments
# [15] = ATCC64124, K4608 checkerboard table
smiles,measurement,setting,value
CCCCOC1C(CO)OC(OC2C(N)CC(N)C(OC3OC(CN)C(O)C(O)C3O)C2O)C(O)C1N (stereo not shown) [Compound K404],MIC,[1]; [7],4-16 mg per L
same,MIC,[2]; [8],>500 mg per L
CCCCCCOC1C(CO)OC(OC2C(N)CC(N)C(OC3OC(CN)C(O)C(O)C3O)C2O)C(O)C1N (stereo not shown) [Compound K406],MIC,[1]; [7],8-64 mg per L
same,MIC,[3],>250 mg per L
same,MIC,[2]; [8],>500 mg per L
CCCCCCCOC1C(CO)OC(OC2C(N)CC(N)C(OC3OC(CN)C(O)C(O)C3O)C2O)C(O)C1N (stereo not shown) [Compound K407],MIC,[1],125 mg per L
same,MIC,[3],>250 mg per L
same,MIC,[2]; [8],125 mg per L
CCCCCCCCOC1[C@@H](N)[C@@H](O)C(O[C@@H]2C(N)CC(N)C(O[C@H]3OC(CN)[C@@H](O)[C@H](O)C3O)[C@@H]2O)O[C@@H]1CO (stereo partly shown) [Compound K408],toxicity to human cervical cancer cell line HeLa,HeLa cells,not toxic
same,Viable Cells Percentage Compared to Control,"HeLa cells; HeLa, 1 μg/mL",139.37%
same,Viable Cells Percentage Compared to Control,"HeLa cells; HeLa, 10 μg/mL",156.92%
same,Viable Cells Percentage Compared to Control,"HeLa cells; HeLa, 100 μg/mL",144.82%
same,Viable Cells Percentage Compared to Control,"HeLa cells; HeLa, 1000 μg/mL",138.39%
same,effect on growth of cells (number of viable cells),"HeLa cells; HeLa, wells treated with compound",promoted growth of cells
same,MFC,[4]; ATCC64124,9.8 µg/mL
same,MIC,[4],9.8 µg/mL
same,MIC,[1]; [9],125 µg/mL
same,MIC,[5]; [10],31.2 µg/mL
same,MIC,[5]; [11],31.2 µg/mL
same,MIC,[2]; [12],31.3 µg/mL
same,MIC,[6],1.2 µg/mL
same,MFC,[6]; subculture on Sabouraud dextrose agar after MIC test,2.4 µg/mL
CCCCCCCCCOC1C(CO)OC(OC2C(N)CC(N)C(OC3OC(CN)C(O)C(O)C3O)C2O)C(O)C1N (stereo not shown) [Compound K409],MIC,[1]; [7],>250 mg per L
same,MIC,[3],>250 mg per L
same,MIC,[2]; [8],62.5 mg per L
CCCCCCCCCCOC1C(CO)OC(OC2C(N)CC(N)C(OC3OC(CN)C(O)C(O)C3O)C2O)C(O)C1N (stereo not shown) [Compound K410],MIC,[1]; [7],125 mg per L
same,MIC,[3],>250 mg per L
same,MIC,[2]; [8],62.5 mg per L
CCCCCCCCCCCCOC1C(CO)OC(OC2C(N)CC(N)C(OC3OC(CN)C(O)C(O)C3O)C2O)C(O)C1N (stereo not shown) [Compound K412],MIC,[1]; [7],64 mg per L
same,MIC,[3],125-250 mg per L
same,MIC,[2]; [8],>500 mg per L
CCCCCCCCCCCCCCOC1C(CO)OC(OC2C(N)CC(N)C(OC3OC(CN)C(O)C(O)C3O)C2O)C(O)C1N (stereo not shown) [Compound K414],MIC,[1]; [7],>250 mg per L
same,MIC,[3],>250 mg per L
same,MIC,[2]; [8],>500 mg per L
CCCCCCCCOC[C@H]1OC(O[C@@H]2C(N)CC(N)C(O[C@H]3OC(CN)[C@@H](O)[C@H](O)C3O)[C@@H]2O)[C@H](O)[C@H](N)C1O (stereo partly shown) [Compound K608],toxicity to human cervical cancer cell line HeLa,HeLa cells,not toxic
same,Viable Cells Percentage Compared to Control,"HeLa cells; HeLa, 1 μg/mL",79.47%
same,Viable Cells Percentage Compared to Control,"HeLa cells; HeLa, 10 μg/mL",107.9%
same,Viable Cells Percentage Compared to Control,"HeLa cells; HeLa, 100 μg/mL",75.36%
same,Viable Cells Percentage Compared to Control,"HeLa cells; HeLa, 1000 μg/mL",86.49%
same,cell viability,"HeLa cells; HeLa, at all concentration",~80%
CCCCOCC1OC(OC2C(N)CC(N)C(OC3OC(CN)C(O)C(O)C3O)C2O)C(O)C(N)C1OCCCC (stereo not shown) [Compound K4604],MIC,[1]; [7],>250 mg per L
same,MIC,[3],>250 mg per L
same,MIC,[2]; [8],125 mg per L
CCCCCCOCC1OC(OC2C(N)CC(N)C(OC3OC(CN)C(O)C(O)C3O)C2O)C(O)C(N)C1OCCCCCC (stereo not shown) [Compound K4606],MIC,[1]; [7],32-125 mg per L
same,MIC,[3],>250 mg per L
same,MIC,[2]; [8],3.9 mg per L
CCCCCCCOCC1OC(OC2C(N)CC(N)C(OC3OC(CN)C(O)C(O)C3O)C2O)C(O)C(N)C1OCCCCCCC (stereo not shown) [Compound K4607],MIC,[1]; [7],8-125 mg per L
same,MIC,[3],125 mg per L
same,MIC,[2]; [8],15.6 mg per L
CCCCCCCCCOCC1OC(OC2C(N)CC(N)C(OC3OC(CN)C(O)C(O)C3O)C2O)C(O)C(N)C1OCCCCCCCCC (stereo not shown) [Compound K4609],MIC,[1]; [7],8 mg per L
same,MIC,[3],16 mg per L
same,MIC,[2]; [8],125 mg per L
CCCCCCCCCCOCC1OC(OC2C(N)CC(N)C(OC3OC(CN)C(O)C(O)C3O)C2O)C(O)C(N)C1OCCCCCCCCCC (stereo not shown) [Compound K4610],MIC,[1]; [7],16 mg per L
same,MIC,[3],125 mg per L
same,MIC,[2]; [8],>500 mg per L
CCCCCCCCCCCCOCC1OC(OC2C(N)CC(N)C(OC3OC(CN)C(O)C(O)C3O)C2O)C(O)C(N)C1OCCCCCCCCCCCC (stereo not shown) [Compound K4612],MIC,[1]; [7],64 mg per L
same,MIC,[3],>250 mg per L
same,MIC,[2]; [8],>500 mg per L
CCCCCCCCCCCCCCOCC1OC(OC2C(N)CC(N)C(OC3OC(CN)C(O)C(O)C3O)C2O)C(O)C(N)C1OCCCCCCCCCCCCCC (stereo not shown) [Compound K4614],MIC,[1]; [7],>250 mg per L
same,MIC,[3],>250 mg per L
same,MIC,[2]; [8],>500 mg per L
"NC[C@H]1O[C@H](O[C@H]2[C@H](O)[C@@H](O[C@H]3O[C@H](CO)[C@@H](O)[C@H](N)[C@H]3O)[C@H](N)C[C@@H]2N)[C@H](O)[C@@H](O)[C@@H]1O [Kanamycin, reference compound]",MIC,[4],> 500 µg/mL
same,MIC,[1]; [9],0.5 to 1 µg/mL
same,MIC,"[3]; Escherichia coli, ATCC25922, read-out: MIC",1 to 4 µg/mL
same,MIC,[2]; [12],> 500 µg/mL
same,MIC,[6],250 to 500 µg/mL
Clc1ccccc1C(c1ccccc1)(c1ccccc1)n1ccnc1 [chlotrimazole],MIC alone,[5]; [13],3.91 µg/mL
same,MIC alone,[5]; [14],7.81 µg/mL
same,MIC K408 with azole,[5]; [13],3.91 µg/mL
same,MIC K408 with azole,[5]; [14],1.95 µg/mL
same,MIC K4608 with azole,"[5]; MIC of K4608 when combined with the labelled azole, one experiment",1.95 µg/mL
same,MIC with K408,[5]; [13],0.24 mg/L
same,MIC with K408,[5]; [14],0.49 mg/L
same,MIC with K4608,[5]; one experiment,3.91 µg/mL
same,FIC Index (K408 with azole),[5]; [13],0.37
same,FIC Index (K408 with azole),[5]; [14],0.13
same,FIC Index (K4608 with azole),[5]; one experiment,0.19
OC(Cn1cncn1)(Cn1cncn1)c1ccc(F)cc1F [fluconazole],MIC,[5]; [10],250 µg/mL
same,MIC,[5]; [11],250 µg/mL
same,MIC,[5]; [15],> 250 µg/mL
same,MIC with K408,[5]; [13],"15.63, 15.63 mg L^−1"
same,MIC with K408,[5]; [14],"15.63, 15.63 mg L^−1"
same,MIC with K4608,[5]; one experiment,31.25 µg/mL
same,FIC Index (K408 with azole),[5]; [13],"0.31, 0.31"
same,FIC Index (K408 with azole),[5]; [14],"0.31, 0.31"
same,FIC Index (K4608 with azole),[5]; one experiment,0.25
CCC(C)n1ncn(-c2ccc(N3CCN(c4ccc(OCC5COC(Cn6cncn6)(c6ccc(Cl)cc6Cl)O5)cc4)CC3)cc2)c1=O (stereo not shown) [itraconazole],MIC,[5]; [10],250 µg/mL
same,MIC,[5]; [11],250 µg/mL
same,MIC,[5]; [15],> 250 µg/mL
same,MIC with K408,[5]; [13],"0.98, 0.98 mg L^−1"
same,MIC with K408,[5]; [14],"0.98, 0.98 mg L^−1"
same,MIC with K4608,[5]; one experiment,3.91 µg/mL
same,FIC Index (K408 with azole),[5]; [13],"0.25, 0.25"
same,FIC Index (K408 with azole),[5]; [14],"0.25, 0.25"
same,FIC Index (K4608 with azole),[5]; one experiment,<0.52
CC[C@@H]([C@H](C)O)n1ncn(-c2ccc(N3CCN(c4ccc(OC[C@@H]5CO[C@@](Cn6cncn6)(c6ccc(F)cc6F)C5)cc4)CC3)cc2)c1=O [posaconazole],MIC,[5]; [10],62.5 µg/mL
same,MIC,[5]; [11],250 µg/mL
same,MIC with K408,[5]; [13],"0.24, 0.24 mg L^−1"
same,MIC with K408,[5]; [14],"0.24, 0.24 mg L^−1"
same,MIC with K4608,[5]; one experiment,0.49 µg/mL
same,FIC Index (K408 with azole),[5]; [13],0.38
same,FIC Index (K408 with azole),[5]; [14],0.07
same,FIC Index (K4608 with azole),[5]; one experiment,<0.13
C[C@@H](c1ncncc1F)[C@](O)(Cn1cncn1)c1ccc(F)cc1F [voriconazole],MIC,[5]; [10],7.81 µg/mL
same,MIC,[5]; [11],7.81 µg/mL
same,MIC,[5]; [15],7.81 µg/mL
same,MIC with K408,[5]; [13],1.95 mg/L
same,MIC with K408,[5]; [14],0.81 mg/L
same,MIC with K4608,[5]; one experiment,0.98 µg/mL
same,FIC Index (K408 with azole),[5]; [13],"0.38, 0.38"
same,FIC Index (K408 with azole),[5]; [14],"0.38, 0.38"
same,FIC Index (K4608 with azole),[5]; one experiment,0.19
